The text below walks through data of patent US20230357447A1, “TUMOR ACTIVATED MULTISPECIFIC ANTIBODIES FOR TARGETING CD28 AND PD-L1 AND METHODS OF USE THEREOF” (Janux Therapeutics, Inc., priority 2022, published 2023).

In one test the test system is anti-CD28 scFv. Description: Phage binding ELISA (panning) of clonal phage on anti-CD28 scFv, with or without CD28 soluble protein. Conditions: Phage binding ELISA; clonal phage supernatant, background wells. Here is the method:
Clonal phage were harvested as crude supernatants and screened via standard enzyme linked immunosorbent assays (ELISAs). […] Prior to the addition of clonal phage, wells were incubated with blocking buffer and CD28 soluble protein or blocking buffer alone. Without washing or aspirating, clonal phage supernatants were then added to the wells and incubated for a short time. Wells were then washed followed by detection of bound phage using a horse radish peroxidase conjugated anti-M13 antibody. Clonal phage of interest were then sent for sequence analysis.
With Phage-118 (MDWCPRHLWDECFF), the Backgroud signal turned out to be 0.074.

As for Phage-119 (MDWCPRYLWHMCYS), the Backgroud signal was 0.129.

Phage-120 (MDWCPRDLWHACFS): the Backgroud signal was 0.074.

Substance Phage-121 (MDWCPRDLWHVCFF) registered a Backgroud signal of 0.068.

As to Phage-122 (MDWCPRDLWDQCYA), the Backgroud signal stood at 0.059.

Phage-123 (MDWCPIHLWNECFA) had a Backgroud signal of 0.104.

Phage-124 (MDWCPRPLWDMCFF): the Backgroud signal was determined as 0.063.

For the substance Phage-125 (MDWCPVSLWHVCFY), the Backgroud signal came out at 0.107.

As to Phage-126 (MDWCPRFLWNECFN), the Backgroud signal was determined as 0.072.

Phage-127 (MDWCPRALWNECFA) gave a Backgroud signal of 0.080.

In turn, Phage-128 (MDWCPRDLWIECFF) registered a Backgroud signal of 0.084.

Phage-129 (MDWCPSYLWTVCFA) gave a Backgroud signal of 0.062.

Turning to Phage-130 (MDWCPRYLWDACFF), the Backgroud signal was 0.066.

For Phage-131 (MDWCPRSLWIYCFN), the Backgroud signal was 0.113.

Phage-132 (MDWCPTYLWFECFN) returned a Backgroud signal of 0.205.

Phage-133 (MDWCPRFLWDECFF) gave a Backgroud signal of 0.064.

Phage-134 (MDWCPSYLWHECFA) gave a Backgroud signal of 0.096.

The substance Phage-135 (MDWCPKFLWHECFS) came in with a Backgroud signal of 0.065.

Take Phage-136 (MHWCPIYLWDECFN): the Backgroud signal is recorded as 0.071.

The substance Phage-137 (MDWCPRYLWHECFH) registered a Backgroud signal of 0.101.

Turning to Phage-138 (MDWCPTNLWHECFA), the Backgroud signal is given as 0.061.

Take Phage-139 (MDWCPRDLWDVCFA): the Backgroud signal is 0.096.

For the substance Phage-140 (MDWCPMDLWDVCFN), the Backgroud signal was 0.090.

The substance Phage-141 (MDWCPRSLWNVCFF) came in with a Backgroud signal of 0.106.

Substance Phage-142 (MDWCPVILWDFCFN) gave a Backgroud signal of 0.066.

In turn, Phage-143 (LDWCPLNLWDLCYF) registered a Backgroud signal of 0.062.

On to Phage-144 (MDWCPRHLWYACFN), for which the Backgroud signal is 0.061.

Phage-145 (MDWCPKHLWIECFA) came in with a Backgroud signal of 0.065.

Substance Phage-146 (MDWCPRHLWSECFY) showed a Backgroud signal of 0.136.

Phage-147 (MHWCPRDLWVVCFN) returned a Backgroud signal of 0.070.

For the substance Phage-148 (MHWCPEYLWNECFA), the Backgroud signal is 0.074.

For Phage-149 (MDWCPRDLWAVCFA), the Backgroud signal was 0.070.

Consider Phage-150 (MDWCPRHLWNVCFS), for which the Backgroud signal is given as 0.058.

Regarding Phage-151 (MDFCPISLWHECFF), the Backgroud signal was determined as 0.081.

For the substance Phage-152 (MDWCPKYLWDKCFH), the Backgroud signal was found to be 0.073.

Consider Phage-153 (MDWCPRHLWDLCFF), for which the Backgroud signal is 0.093.

Phage-154 (MDWCPRDLWNVCFA) had a Backgroud signal of 0.114.

As for Phage-155 (MHWCPLHLWNECYH), the Backgroud signal amounted to 0.063.

With Phage-156 (MDWCPKHLWHQCFH), the Backgroud signal is recorded as 0.058.

Phage-157 (MDWCPRSLWSYCFH) returned a Backgroud signal of 0.066.

For Phage-158 (MDWCPRYLWTECFF), the Backgroud signal came to 0.110.

Still in this test, the particulars now being: clonal phage supernatant; background signal.
Take Phage-159 (MAWCPMNLWDQCFF): the “Phage binding ELISA Backgroud signal” value was 0.070.

For Phage-160 (MHWCPRALWHECFN), the “Phage binding ELISA Backgroud signal” value came to 0.070.

Phage-161 (MDWCPRHLWDQCFA): the “Phage binding ELISA Backgroud signal” value worked out at 0.150.

Phage-162 (MNWCPTDLWHECFN): the “Phage binding ELISA Backgroud signal” value was found to be 0.087.

As for Phage-163 (MFWCPRYLWHECFN), the “Phage binding ELISA Backgroud signal” value came to 0.086.

Turning to Phage-164 (MDWCPKFLWDLCFA), the “Phage binding ELISA Backgroud signal” value is reported as 0.100.

Turning to Phage-165 (MDWCPFYLWDECFL), the “Phage binding ELISA Backgroud signal” value is given as 0.070.

Consider Phage-166 (MDWCPRHLWDLCFA), for which the “Phage binding ELISA Backgroud signal” value was found to be 0.061.

On to Phage-167 (MSWCPQDLWHVCFN), for which the “Phage binding ELISA Backgroud signal” value is reported as 0.095.

Phage-168 (MDWCPKDLWHECFN): the “Phage binding ELISA Backgroud signal” value was found to be 0.073.

For Phage-169 (MDWCPRDLWNVCFN), the “Phage binding ELISA Backgroud signal” value turned out to be 0.100.

For the substance Phage-170 (MNWCPSDLWHLCFN), the “Phage binding ELISA Backgroud signal” value was determined as 0.071.

On to Phage-171 (MNWCPSHLWHMCYF), for which the “Phage binding ELISA Backgroud signal” value stood at 0.195.

Phage-172 (MDWCPPYLWYECFA): the “Phage binding ELISA Backgroud signal” value turned out to be 0.068.

Phage-173 (MDWCPMNLWSECFN): the “Phage binding ELISA Backgroud signal” value is listed as 0.168.

Turning to Phage-174 (MDWCPKHLWNECFN), the “Phage binding ELISA Backgroud signal” value worked out at 0.063.

As to Phage-175 (MDWCPAYLWAECFS), the “Phage binding ELISA Backgroud signal” value is given as 0.082.

As to Phage-176 (MDWCPSDLWHECFH), the “Phage binding ELISA Backgroud signal” value is 0.075.

Turning to Phage-177 (MDWCPVSLWDHCFN), the “Phage binding ELISA Backgroud signal” value was determined as 0.075.

With Phage-178 (LDWCPRDLWHVCFF), the “Phage binding ELISA Backgroud signal” value turned out to be 0.176.

Take Phage-179 (MDWCPWILWNECFN): the “Phage binding ELISA Backgroud signal” value was 0.141.

Phage-180 (MHWCPRYLWDECFN): the “Phage binding ELISA Backgroud signal” value is 0.132.

On to Phage-181 (MYWCPRDLWDVCFN), for which the “Phage binding ELISA Backgroud signal” value came out at 0.145.

Phage-182 (MHWCPRSLWNECYF): the “Phage binding ELISA Backgroud signal” value worked out at 0.168.

As for Phage-183 (IDWCPRDLWALCFN), the “Phage binding ELISA Backgroud signal” value is given as 0.127.

As for Phage-184 (MHWCPINLWNECFS), the “Phage binding ELISA Backgroud signal” value is 0.081.

For the substance Phage-185 (MERCPRFLWNECFN), the “Phage binding ELISA Backgroud signal” value came out at 0.132.

As for Phage-186 (QDWCPTYLWHHCFN), the “Phage binding ELISA Backgroud signal” value stood at 0.101.

With Phage-187 (IGKLTLCLNADLVI), the “Phage binding ELISA Backgroud signal” value is listed as 0.274.

As for Phage-188 (MDWCPSYLWDQCFF), the “Phage binding ELISA Backgroud signal” value is 0.100.

With Phage-189 (VDWCPRYLWHVCYN), the “Phage binding ELISA Backgroud signal” value is listed as 0.064.

Phage-190 (MDWCPRDMWAECFF): the “Phage binding ELISA Backgroud signal” value is 0.099.

Regarding Phage-191 (MDWCPRDMWYECFN), the “Phage binding ELISA Backgroud signal” value is reported as 0.099.

For the substance Phage-192 (DVWCPKYMWSLCFN), the “Phage binding ELISA Backgroud signal” value is given as 0.101.

Take Phage-193 (MDWCPMDMWVNCFN): the “Phage binding ELISA Backgroud signal” value worked out at 0.059.

As to Phage-194 (MDWCPSDMWHECYA), the “Phage binding ELISA Backgroud signal” value worked out at 0.062.

As for Phage-195 (MDWCPKHMWFMCFN), the “Phage binding ELISA Backgroud signal” value is reported as 0.101.

For Phage-196 (MDWCPRYMWYQCFS), the “Phage binding ELISA Backgroud signal” value was 0.079.

Turning to Phage-197 (MDWCPRHMWYECFF), the “Phage binding ELISA Backgroud signal” value is given as 0.129.

As for Phage-198 (MDWCPRAMWNHCFN), the “Phage binding ELISA Backgroud signal” value is given as 0.321.

As to Phage-199 (MDWCPRNMWAQCFA), the “Phage binding ELISA Backgroud signal” value was found to be 0.102.

For the substance Phage-200 (MFWCPFDMWHFCFN), the “Phage binding ELISA Backgroud signal” value was found to be 0.150.

With Phage-201 (MDWCPRDMWDQCFD), the “Phage binding ELISA Backgroud signal” value turned out to be 0.072.

With Phage-202 (MFWCPMDMWDQCFN), the “Phage binding ELISA Backgroud signal” value was 0.091.

Regarding Phage-203 (MSWCPRDMWFYCYA), the “Phage binding ELISA Backgroud signal” value is reported as 0.065.

For Phage-204 (MDWCPRHMWNVCFS), the “Phage binding ELISA Backgroud signal” value stood at 0.067.

As for Phage-205 (MDWCPTDMWHHCFL), the “Phage binding ELISA Backgroud signal” value turned out to be 0.061.

In the case of Phage-206 (IHWCPINMWDKCYN), the “Phage binding ELISA Backgroud signal” value is listed as 0.060.

In the case of Phage-207 (MDWCPRAMWHECFY), the “Phage binding ELISA Backgroud signal” value turned out to be 0.069.

Regarding Phage-208 (MDWCPTDMWIVCFA), the “Phage binding ELISA Backgroud signal” value is recorded as 0.363.

Phage-209 (IDWCPQDMWFYCFN): the “Phage binding ELISA Backgroud signal” value was 0.069.

Take Phage-210 (MDWCPRDMWFECFA): the “Phage binding ELISA Backgroud signal” value came out at 0.076.

Take Phage-211 (MDWCPRNMWTVCFL): the “Phage binding ELISA Backgroud signal” value is reported as 0.060.

In the case of Phage-212 (MDWCPRAMWDKCFF), the “Phage binding ELISA Backgroud signal” value worked out at 0.073.

For the substance Phage-213 (MNWCPSYMWDQCFA), the “Phage binding ELISA Backgroud signal” value was determined as 0.125.

Phage-214 (MDWCPTYMWSECFN): the “Phage binding ELISA Backgroud signal” value is given as 0.086.

Turning to Phage-215 (MDWCPRYMWNECFN), the “Phage binding ELISA Backgroud signal” value is 0.064.

Consider Phage-216 (MDWCPMNMWYQCFN), for which the “Phage binding ELISA Backgroud signal” value is listed as 0.110.

As for Phage-217 (MDWCPWDMWDKCFN), the “Phage binding ELISA Backgroud signal” value is on record as 0.101.

Take Phage-218 (TFGCPTTMWNRCFA): the “Phage binding ELISA Backgroud signal” value is recorded as 0.117.

As for Phage-219 (NYWCPSSMWNRCLH), the “Phage binding ELISA Backgroud signal” value was 0.295.

As to Phage-220 (FDFCPTTMWTYCQH), the “Phage binding ELISA Backgroud signal” value was determined as 0.084.

As for Phage-221 (TTWCPTSMWLHCFD), the “Phage binding ELISA Backgroud signal” value stood at 0.096.

Take Phage-222 (MDWCPRDQWHNCFN): the “Phage binding ELISA Backgroud signal” value is given as 0.075.

Regarding Phage-223 (MDWCPRDRWVDCFF), the “Phage binding ELISA Backgroud signal” value came out at 0.066.

As for Phage-224 (MDWCPKDRWNDCYF), the “Phage binding ELISA Backgroud signal” value turned out to be 0.078.

As for Phage-225 (MDWCPRDRWADCFF), the “Phage binding ELISA Backgroud signal” value is 0.069.

For Phage-226 (MDWCPRDRWIDCFN), the “Phage binding ELISA Backgroud signal” value came out at 0.218.
